Legend:
Experiment in all cases: Histone peptide microarray
Type in all cases: binding, human
Conditions in all cases: histone peptide array, GST-tagged reader
PHF2 = tested on: PHF2
Procedure, shortened: (§1)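 GST-tagged PHD readers, 0.5 μM, probed on a microarray of 293 synthetic histone peptides carrying single or combinatorial PTMs (optimized Petell protocol). Signals are averaged over 4 replicates and expressed as relative binding.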

TAF3 = tested on: TAF3
Procedure, shortened: as §1

DPF2 (PPC2W2) = tested on: DPF2 (PPC2W2)
Procedure, shortened: as §1

PHF13 = tested on: PHF13
Procedure, shortened: as §1

CHD4 (PPCC) = tested on: CHD4 (PPCC)
Procedure, shortened: as §1

SP140L = tested on: SP140L
Procedure, shortened: as §1

KDM5B (1) = tested on: KDM5B (1)
Procedure, shortened: as §1

DIDO1 = tested on: DIDO1
Procedure, shortened: as §1

KDM7A = tested on: KDM7A
Procedure, shortened: as §1

CHD5 (PCC) = tested on: CHD5 (PCC)
Procedure, shortened: as §1

KDM5A (3) = tested on: KDM5A (3)
Procedure, shortened: as §1

PHF23 = tested on: PHF23
Procedure, shortened: as §1

PHF21A = tested on: PHF21A
Procedure, shortened: as §1

BPTF (PB) = tested on: BPTF (PB)
Procedure, shortened: as §1

MLL5 = tested on: MLL5
Procedure, shortened: as §1

AIRE (PP) = tested on: AIRE (PP)
Procedure, shortened: as §1

TRIM66 (PB) = tested on: TRIM66 (PB)
Procedure, shortened: as §1

PHF8 = tested on: PHF8
Procedure, shortened: as §1

ING5 = tested on: ING5
Procedure, shortened: as §1

KDM5A (1) = tested on: KDM5A (1)
Procedure, shortened: as §1

BAZ2B = tested on: BAZ2B
Procedure, shortened: as §1

ING2 = tested on: ING2
Procedure, shortened: as §1

ING1 = tested on: ING1
Procedure, shortened: as §1

MORC3 (CW) = tested on: MORC3 (CW)
Procedure, shortened: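 Each reader, produced as a GST fusion and purified, was tested at 0.5 μM on synthetic histone peptides (293 in total) carrying single or combinatorial marks. Intensities averaged over four replicates.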

ING4 = tested on: ING4
Procedure, shortened: as §1

PHRF1 (RP) = tested on: PHRF1 (RP)
Procedure, shortened: as §1

KDM5B (3) = tested on: KDM5B (3)
Procedure, shortened: as §1

KDM4C (TTP) = tested on: KDM4C (TTP)
Procedure, shortened: as §1

CHD5 (PPCC) = tested on: CHD5 (PPCC)
Procedure, shortened: as §1

RAG2 = tested on: RAG2
Procedure, shortened: as §1

ING3 = tested on: ING3
Procedure, shortened: as §1

[1] = PPCC = Dual PHD + Dual Chromodomain, arrays performed twice, n of 4
[2] = PB = PHD + Bromodomain, arrays performed twice, n of 4
[3] = sheet "Array Heatmap", total n = 4

## H3.3 (27-45): H3.3 27-45 (KSAPSTGGVKKPHRYRPGT; UniProt P84243 28-46, looked up, fragment)
PHF2; arrays performed twice, n of 4
  Array Heatmap signal, PHF2: 0.4329
TAF3; arrays performed twice, n of 4
  Array Heatmap signal, TAF3: 0.2584
DPF2 (PPC2W2); PPC2W2 = Dual PHD + C2W2-type Zn-finger, arrays performed twice, n of 4
  Array Heatmap signal, DPF2 (PPC2W2): 0.6084
PHF13; arrays performed twice, n of 4
  Array Heatmap signal, PHF13: 0.5824
CHD4 (PPCC); [1]
  Array Heatmap signal, CHD4 (PPCC): 0.5867
SP140L; arrays performed twice, n of 4
  Array Heatmap signal, SP140L: 0.3705
KDM5B (1); arrays performed twice, n of 4
  Array Heatmap signal, KDM5B (1): 0.6276
DIDO1; arrays performed twice, n of 4
  Array Heatmap signal, DIDO1: 0.7133
KDM7A; arrays performed twice, n of 4
  Array Heatmap signal, KDM7A: 0.4316
CHD5 (PCC); PCC = PHD + Dual Chromodomain, arrays performed twice, n of 4
  Array Heatmap signal, CHD5 (PCC): 0.7947
KDM5A (3); arrays performed twice, n of 4
  Array Heatmap signal, KDM5A (3): 0.405
PHF23; arrays performed twice, n of 4
  Array Heatmap signal, PHF23: 0.5188
PHF21A; arrays performed twice, n of 4
  Array Heatmap signal, PHF21A: 0.4761
BPTF (PB); [2]
  Array Heatmap signal, BPTF (PB): 0.34
MLL5; arrays performed twice, n of 4
  Array Heatmap signal, MLL5: 0.5451
AIRE (PP); arrays performed twice, n of 4
  Array Heatmap signal, AIRE (PP): 0.4994
TRIM66 (PB); [2]
  Array Heatmap signal, TRIM66 (PB): 0.5678
PHF8; arrays performed twice, n of 4
  Array Heatmap signal, PHF8: 0.3699
ING5; arrays performed twice, n of 4
  Array Heatmap signal, ING5: 0.3478
KDM5A (1); arrays performed twice, n of 4
  Array Heatmap signal, KDM5A (1): 0.4676
BAZ2B; arrays performed twice, n of 4
  Array Heatmap signal, BAZ2B: 0.4692
ING2; arrays performed twice, n of 4
  Array Heatmap signal, ING2: 0.588
ING1; arrays performed twice, n of 4
  Array Heatmap signal, ING1: 0.4846
MORC3 (CW); CW = CW-type Zn-finger, arrays performed twice, n of 4
  Array Heatmap signal, MORC3 (CW): 0.3459
ING4; arrays performed twice, n of 4
  Array Heatmap signal, ING4: 0.4566
PHRF1 (RP); arrays performed twice, n of 4
  Array Heatmap signal, PHRF1 (RP): 0.4032
KDM5B (3); arrays performed twice, n of 4
  Array Heatmap signal, KDM5B (3): 0.4762
KDM4C (TTP); TTP = Tandem Tudor domain + PHD, arrays performed twice, n of 4
  Array Heatmap signal, KDM4C (TTP): 0.5199
CHD5 (PPCC); [1]
  Array Heatmap signal, CHD5 (PPCC): 0.5478
RAG2; arrays performed twice, n of 4
  Array Heatmap signal, RAG2: 0.2569
ING3; arrays performed twice, n of 4
  Array Heatmap signal, ING3: 0.4546

## H3.3K18ac + K23ac + K27ac + S28p: H3.3 15-34
PHF2; [3]
  Array Heatmap signal, PHF2: 0.5396
TAF3; [3]
  Array Heatmap signal, TAF3: 0.2571
DPF2 (PPC2W2); [3]
  Array Heatmap signal, DPF2 (PPC2W2): 0.6362
PHF13; [3]
  Array Heatmap signal, PHF13: 0.5819
CHD4 (PPCC); [3]
  Array Heatmap signal, CHD4 (PPCC): 0.5345
SP140L; [3]
  Array Heatmap signal, SP140L: 0.326
KDM5B (1); [3]
  Array Heatmap signal, KDM5B (1): 0.64
DIDO1; [3]
  Array Heatmap signal, DIDO1: 0.747
KDM7A; [3]
  Array Heatmap signal, KDM7A: 0.3117
CHD5 (PCC); [3]
  Array Heatmap signal, CHD5 (PCC): 0.7419
KDM5A (3); [3]
  Array Heatmap signal, KDM5A (3): 0.436
PHF23; [3]
  Array Heatmap signal, PHF23: 0.5591
PHF21A; [3]
  Array Heatmap signal, PHF21A: 0.4374
BPTF (PB); [3]
  Array Heatmap signal, BPTF (PB): 0.3427
MLL5; [3]
  Array Heatmap signal, MLL5: 0.5576
AIRE (PP); [3]
  Array Heatmap signal, AIRE (PP): 0.4033
TRIM66 (PB); [3]
  Array Heatmap signal, TRIM66 (PB): 0.5994
PHF8; [3]
  Array Heatmap signal, PHF8: 0.3574
ING5; [3]
  Array Heatmap signal, ING5: 0.3405
KDM5A (1); [3]
  Array Heatmap signal, KDM5A (1): 0.4461
BAZ2B; [3]
  Array Heatmap signal, BAZ2B: 0.4455
ING2; [3]
  Array Heatmap signal, ING2: 0.6018
ING1; [3]
  Array Heatmap signal, ING1: 0.5496
MORC3 (CW); [3]
  Array Heatmap signal, MORC3 (CW): 0.3503
ING4; [3]
  Array Heatmap signal, ING4: 0.4374
PHRF1 (RP); [3]
  Array Heatmap signal, PHRF1 (RP): 0.4303
KDM5B (3); [3]
  Array Heatmap signal, KDM5B (3): 0.4567
KDM4C (TTP); [3]
  Array Heatmap signal, KDM4C (TTP): 0.4483
CHD5 (PPCC); [3]
  Array Heatmap signal, CHD5 (PPCC): 0.5304
RAG2; [3]
  Array Heatmap signal, RAG2: 0.2492
ING3; [3]
  Array Heatmap signal, ING3: 0.4727
